Data as given in the supplement of paper PMC4862054.
Several values for one entry are separate records, joined by “and”; a condition that tells them apart may be missing. Equal values may be shown once.

How the values were obtained:
Conditions in all cases: incubation time: 72 h
[1] = test system: BT-549; assay: normalised viability (% of control), CellTiter-Blue; higher = more viable cells (about 100 = DMSO control)
Protocol: (§1)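 DSRT, CellTiter-Blue viability, 72 h incubation. Signal is normalised to DMSO and benzethonium chloride controls. Value is the normalised response at dose 3.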

[2] = test system: CAL-148; assay: as above
Protocol: as §1

[3] = test system: CAL-51; assay: as above
Protocol: as §1

[4] = test system: HCC1599; assay: as above
Protocol: as §1

[5] = test system: HDQ-P1; assay: as above
Protocol: as §1

[6] = test system: MDA-MB-231; assay: as above
Protocol: as §1

[7] = test system: MDA-MB-453; assay: as above
Protocol: as §1

[8] = test system: SK-BR-3; assay: as above
Protocol: as §1

[9] = test system: CAL-85-1; assay: drug sensitivity score (DSS), CellTiter-Glo (DSS (AUC-based score)); higher = stronger drug effect (viability inhibition or cytotoxicity); extreme values may be limits of the assay
In short: (§2)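 A drug sensitivity score was derived from the area under each fitted dose-response curve. Breast cancer cells (20 µl suspension) were seeded onto compound in 384-well plates, using 5 concentrations 10-fold apart over a compound-specific 10,000-fold range, and incubated 72 h. Readouts were CellTox Green fluorescence and then CellTiter-Glo luminescence, with every plate normalised to 0.1 % DMSO and a positive kill control.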

[10] = test system: HDQ-P1; assay: as above
In short: as §2

Row | Compound | drug sensitivity score [9] | drug sensitivity score [10] | normalised viability ([1]; 10 nM) | normalised viability ([2]; 1 nM) | normalised viability ([3]; 1 nM) | normalised viability ([4]; 10 nM) | normalised viability ([5]; 1 nM) | normalised viability ([7]; 1 nM) | normalised viability ([8]; 10 nM) | normalised viability ([1]; 100 nM) | normalised viability ([2]; 10 nM) | normalised viability ([3]; 10 nM) | normalised viability ([4]; 100 nM) | normalised viability ([5]; 10 nM) | normalised viability ([6]; 100 nM) | normalised viability ([7]; 10 nM) | normalised viability ([8]; 100 nM) | other results
1 | c1cc(CN2CCCNCCNCCCNCC2)ccc1CN1CCCNCCNCCCNCC1 [Plerixafor] | 0 | 0 |  |  |  |  |  |  |  |  |  |  |  |  |  |  |  | normalised viability ([1]; 25 nM): 117%; normalised viability ([2]; 2.5 nM): 92.3%; normalised viability ([3]; 2.5 nM): 100%; normalised viability ([4]; 25 nM): 101%; normalised viability ([5]; 2.5 nM): 112%; normalised viability ([6]; 25 nM): 93.9%; normalised viability ([7]; 2.5 nM): 106%; normalised viability ([8]; 25 nM): 84.3%
2 | CCN(CC)CCNC(=O)c1c(C)[nH]c(/C=C2\C(=O)Nc3ccc(F)cc32)c1C [Sunitinib] | 0 | 0 | 96.5% and 73.3% | 96.4% and 97.8% | 110% and 90.5% | 125% and 105% | 103% and 99.8% | 89.4% and 98.1% | 85.7% and 80.3% |  |  |  |  |  |  |  |  | normalised viability ([6]; 10 nM): 84.8% and 87.2%
3 | Cc1ccc(Nc2nccc(N(C)c3ccc4c(C)n(C)nc4c3)n2)cc1S(N)(=O)=O [Pazopanib] | 0 | 0 |  |  |  |  |  |  |  | 96.9% | 88.3% | 104% | 108% | 93.8% | 94.3% | 100% | 78.7% | 
4 | CO[C@@H](C(=O)N1Cc2[nH]nc(NC(=O)c3ccc(N4CCN(C)CC4)cc3)c2C1)c1ccccc1 [Danusertib] | 0 | 3.68 |  |  |  |  |  |  |  | 102% | 79.9% | 105% | 77.2% | 104% | 79% | 79.6% | 62.4% | 
5 | CS(=O)(=O)N1CCN(Cc2cc3nc(-c4cccc5[nH]ncc45)nc(N4CCOCC4)c3s2)CC1 [GDC-0941] |  |  |  |  |  |  |  |  |  | 92.8% | 85.6% | 109% | 69.2% | 101% | 83.2% |  | 58.7% | 
6 | O=C(Nc1c[nH]nc1-c1nc2ccc(CN3CCOCC3)cc2[nH]1)NC1CC1 [AT9283] | 0 | 2.87 |  |  |  |  |  |  |  | 86% | 82.7% | 100% | 94.8% | 112% | 75.2% | 82.5% | 53% | 
7 | Cc1cccc(-c2nn3c(c2-c2ccnc4ccc(C(N)=O)cc24)CCC3)n1 |  |  | 96.4% | 99% | 96.1% | 101% | 106% | 112% | 98.9% |  |  |  |  |  |  |  |  | normalised viability ([6]; 10 nM): 99%
8 | CNC(=O)c1cc(Oc2ccc(NC(=O)Nc3ccc(Cl)c(C(F)(F)F)c3)cc2)ccn1 [Sorafenib] | 0 | 0 |  | 102% and 90% | 114% and 99% | 113% and 129% | 105% and 91.4% | 103% and 109% |  |  |  |  |  |  |  |  |  | 
9 | CCC/C=C/C=C/C(=O)O[C@H]1/C(=C/C(=O)OC)C[C@H]2C[C@H]([C@@H](C)O)OC(=O)C[C@H](O)C[C@@H]3C[C@H](OC(C)=O)C(C)(C)[C@](O)(C[C@@H]4C/C(=C/C(=O)OC)C[C@H](/C=C/C(C)(C)[C@]1(O)O2)O4)O3 [Bryostatin 1] | 0 | 1.62 |  |  |  |  |  |  |  |  |  |  |  |  | 97.2% |  | 84.1% | normalised viability ([1]; 1 nM): 94.8%; normalised viability ([2]; 0.1 nM): 90.7%; normalised viability ([3]; 0.1 nM): 102%; normalised viability ([4]; 1 nM): 110%; normalised viability ([5]; 0.1 nM): 106%; normalised viability ([7]; 0.1 nM): 99%
10 | C[C@]12O[C@H](C[C@]1(O)CO)n1c3ccccc3c3c4c(c5c6ccccc6n2c5c31)CNC4=O [Lestaurtinib] | 4.38 | 2.59 | 106% | 101% | 115% | 102% | 113% | 98.7% | 91.3% |  |  |  |  |  |  |  |  | normalised viability ([6]; 10 nM): 110%
11 | C[C@]12C=CC(=O)C=C1CC[C@@H]1[C@@H]2[C@@H](O)C[C@@]2(C)[C@H]1CC[C@]2(O)C(=O)CO [Prednisolone] | 0 | 2.08 |  |  |  |  |  |  |  | 104% | 111% | 98.4% | 102% | 108% | 114% | 105% | 60.8% | 
12 | Nc1ccccc1NC(=O)c1ccc(CNc2nccc(-c3cccnc3)n2)cc1 [Mocetinostat] | 6.32 | 4.52 |  |  |  |  |  |  |  | 81.6% | 111% | 98.2% | 86.9% | 117% | 84.3% | 94.2% | 83.9% | 
13 | Nc1nc(=O)c2c([nH]1)NCC(CNc1ccc(C(=O)N[C@@H](CCC(=O)O)C(=O)O)cc1)N2C=O (mixture of isomers) [Folinic acid] |  |  |  |  |  |  |  |  |  |  |  |  |  |  |  |  |  | normalised viability ([1]; 9.9 nM): 101%; normalised viability ([2]; 0.99 nM): 88.3%; normalised viability ([3]; 0.99 nM): 98.4%; normalised viability ([4]; 9.9 nM): 108%; normalised viability ([5]; 0.99 nM): 140%; normalised viability ([6]; 9.9 nM): 103%; normalised viability ([7]; 0.99 nM): 104%; normalised viability ([8]; 9.9 nM): 104%
14 | COc1ccc(-c2cc3c(C)nc(N)nc3n([C@H]3CC[C@H](OCCO)CC3)c2=O)cn1 | 18.5 | 18.7 |  |  |  |  |  |  |  | 66.9% | 98.1% | 93.3% | 73.6% | 82% | 63.2% | 86.2% | 32.9% | 
15 | O=C1c2c(O)ccc(O)c2C(=O)c2c(NCCNCCO)ccc(NCCNCCO)c21 [Mitoxantrone] | 0 | 0.578 | 87.7% | 94.3% | 104% | 108% | 95% | 84.8% | 75.6% |  |  |  |  |  |  |  |  | normalised viability ([6]; 10 nM): 72.5%
16 | COc1cc(CCc2cc(NC(=O)c3ccc(N4CC(C)NC(C)C4)cc3)n[nH]2)cc(OC)c1 (centres undefined) [AZD4547] | 0 | 0 | 109% | 97.5% | 103% | 83.7% | 112% | 107% | 97.5% |  |  |  |  |  |  |  |  | normalised viability ([6]; 10 nM): 124%
17 | Cc1nc(Nc2ncc(C(=O)Nc3c(C)cccc3Cl)s2)cc(N2CCN(CCO)CC2)n1 [Dasatinib] | 8.17 | 14.9 | 91.5% and 93.8% | 98.7% and 85.7% | 100% and 106% | 105% and 123% | 92.8% and 87.5% | 100% | 89.4% and 82.9% |  |  |  |  |  |  |  |  | 
18 | Cn1cc(CNCC2CCN(c3ncc(C(=O)NO)cn3)CC2)c2ccccc21 |  |  | 103% | 98.3% | 102% | 73.7% | 100% | 86.3% | 35.8% |  |  |  |  |  |  |  |  | normalised viability ([6]; 10 nM): 99.5%
19 | O=S(=O)(c1cccc2cnccc12)N1CCCNCC1 [Fasudil] | 0 | 0 |  |  |  |  |  |  |  | 95.6% | 93.1% | 112% | 100% | 103% | 96% | 103% | 86.2% | 
20 | O=C(NC[C@H](O)CO)c1ccncc1Nc1ccc(I)cc1F |  |  |  |  |  |  |  |  |  | 101% | 80.3% | 99.2% | 101% | 97.9% | 44.8% | 88.7% | 78.1% | 
21 | CC[C@@]1(O)C(=O)OCc2c1cc1n(c2=O)Cc2cc3c(CN(C)C)c(O)ccc3nc2-1 [Topotecan] | 11.1 | 0 | 107% | 96.4% | 96.5% | 109% | 114% | 101% | 85.5% |  |  |  |  |  |  |  |  | normalised viability ([6]; 10 nM): 90.1%
22 | Nc1cccc2c1CN(C1CCC(=O)NC1=O)C2=O (centres undefined) [Lenalidomide] | 0 | 0 |  |  |  |  |  |  |  | 92.2% and 101% | 88% and 92.2% | 106% and 104% | 117% and 96.9% | 101% and 93.8% | 88.9% and 87.4% | 93% and 103% | 73.6% and 88.2% | 
23 | COc1nc(N)nc2c1ncn2[C@@H]1O[C@H](CO)[C@@H](O)[C@@H]1O [Nelarabine] | 0 | 0 |  |  |  |  |  |  |  | 88.7% and 74.2% | 104% and 85.5% | 102% and 103% | 98.1% and 113% | 82.8% and 82.6% | 92.8% and 89.7% | 97.4% and 102% |  | 
24 | Cc1c(CN2CCN(C(=O)[C@H](C)O)CC2)sc2c(N3CCOCC3)nc(-c3cnc(N)nc3)nc12 [GDC-0980] | 11.8 | 14.1 |  |  |  |  |  |  |  | 81.9% | 96.2% | 101% | 67.8% | 94% | 59.2% | 96.1% | 45.3% | 
25 | O=C(CCBr)N1CCN(C(=O)CCBr)CC1 [Pipobroman] | 0 | 0 |  |  |  |  |  |  |  | 86.4% | 100% | 110% | 93.4% | 99.4% | 94.7% | 102% | 108% | 
